From BigSolDB 2.1

solubility (mole fraction) (in DMF, 278.15 K)	solubility (mole fraction) (in DMF, 283.15 K)	solubility (mole fraction) (in DMF, 288.15 K)	solubility (mole fraction) (in DMF, 293.15 K)	solubility (mole fraction) (in DMF, 298.15 K)	solubility (mole fraction) (in DMF, 303.15 K)	solubility (mole fraction) (in DMF, 308.15 K)	solubility (mole fraction) (in DMF, 313.15 K)	solubility (mole fraction) (in DMF, 318.15 K)	solubility (mole fraction) (in water, 278.15 K)	solubility (mole fraction) (in water, 283.15 K)	solubility (mole fraction) (in water, 288.15 K)	solubility (mole fraction) (in water, 293.15 K)	solubility (mole fraction) (in water, 298.15 K)	solubility (mole fraction) (in water, 303.15 K)	solubility (mole fraction) (in water, 308.15 K)	solubility (mole fraction) (in water, 313.15 K)	solubility (mole fraction) (in water, 318.15 K)	SMILES
0.00011	0.00012	0.00014	0.00015	0.00017	0.00018	0.0002	0.00021	0.00023	0.0011	0.00115	0.00124	0.00128	0.00135	0.00144	0.00155	0.00164	0.00178	CC(C)CC(N)C(=O)O (racemic)
0.00023	0.00024	0.00025	0.00026	0.00027	0.00028	0.00029	0.0003	0.00031	0.0025	0.00269	0.0027	0.0029	0.003	0.0032	0.0034	0.0036	0.0038	CC[C@H](C)[C@H](N)C(=O)O (racemic)
